Broadly, the IC50 is the point on the concentration scale where inhibition reaches its midpoint. The low end stands for greater potency, the high end for weaker potency.

The results in this text go back to patent US6783949B1, “Processes for determining whether a test substance contains lipases or lipase inhibitors” (Aventis Pharma Deutschland GmbH, priority 1999, dated 2004).

A value given as a limit tells only on which side of the number the result lay.

The target of experiment [1] is T1, HSL (Rattus norvegicus, UniProt P15304).
T1 construct: The partially purified HSL can be stored at −70° C. for 4 to 6 weeks; from tissue; host or cells: rat epididymal fat cells (male Wistar rats)
T1 sequence (P15304 1-768 isoform P15304-2): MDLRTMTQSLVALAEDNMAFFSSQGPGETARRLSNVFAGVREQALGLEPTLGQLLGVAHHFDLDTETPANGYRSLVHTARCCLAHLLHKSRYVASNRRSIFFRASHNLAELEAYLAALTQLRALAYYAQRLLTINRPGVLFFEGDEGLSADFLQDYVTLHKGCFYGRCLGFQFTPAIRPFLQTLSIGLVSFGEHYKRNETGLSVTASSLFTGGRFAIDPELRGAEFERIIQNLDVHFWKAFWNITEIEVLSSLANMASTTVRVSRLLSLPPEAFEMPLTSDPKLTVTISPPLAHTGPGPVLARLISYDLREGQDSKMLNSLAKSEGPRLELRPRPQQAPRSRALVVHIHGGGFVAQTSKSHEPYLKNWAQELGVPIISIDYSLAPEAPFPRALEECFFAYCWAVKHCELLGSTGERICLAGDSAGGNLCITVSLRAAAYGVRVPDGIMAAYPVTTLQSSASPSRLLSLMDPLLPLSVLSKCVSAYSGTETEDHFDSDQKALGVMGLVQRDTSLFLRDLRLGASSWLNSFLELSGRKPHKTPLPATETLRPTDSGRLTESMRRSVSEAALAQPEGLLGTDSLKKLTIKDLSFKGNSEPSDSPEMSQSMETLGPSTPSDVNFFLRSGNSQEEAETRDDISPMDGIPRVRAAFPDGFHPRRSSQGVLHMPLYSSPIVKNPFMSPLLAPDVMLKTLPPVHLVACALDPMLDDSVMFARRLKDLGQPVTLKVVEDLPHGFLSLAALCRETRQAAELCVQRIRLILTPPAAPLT
Briefly: PNPB assay. It is filed as biochemical. The note with it: Example 6, Table 6; n=5, mean±SD. On the procedure:
Isolated rat fat cells are obtained from epididymal fatty tissue from untreated male rats (Wistar, 220-250 g) by collagenase treatment according to published processes. The fat cells from 10 rats are washed three times by flotation with 50 ml each of homogenization buffer ([…], pH 7.4, 0.25 M sucrose, 1 mM ethylenediamine-N,N,N′,N′-tetraacetic acid (EDTA), 1 mM dithiothreitol (DTT), 10 μg/ml of leupeptin, 10 μg/ml of antipain, 20 μg/ml of pepstatin) and finally taken up in 10 ml of homogenization buffer. The fat cells are homogenized in a Teflon-in-glass homogenizer (Braun-Melsungen) by 10 strokes at 1500 rpm and 15° C. The homogenizate is centrifuged (Sorvall SM24 tubes, 5000 rpm, 10 min, 4° C.). […]
10 μl of p-nitrophenyl butyrate (PNPB)(2 mM in acetonitrile), 890 μl of 0.1 M KPi (pH 7.25), 0.9% NaCl, 1 mM DTT, and 100 μl of HSL (prepared as above, diluted in this buffer) are incubated at 37° C. for 10 min. […] An equivalent volume of the upper phase is then taken and the absorption is determined at 400 nm.
Substances are customarily tested in four independent batches. The inhibition of the enzymatic activity of the HSL by a test substance is determined by comparison with an uninhibited control reaction. The IC50 value is calculated by means of an inhibition curve using at least 10 concentrations of the test substance. […]

Experiment [2] has as its target T2, pancreatic lipase (Homo sapiens, UniProt P16233).
T2 sequence (P16233 17-465): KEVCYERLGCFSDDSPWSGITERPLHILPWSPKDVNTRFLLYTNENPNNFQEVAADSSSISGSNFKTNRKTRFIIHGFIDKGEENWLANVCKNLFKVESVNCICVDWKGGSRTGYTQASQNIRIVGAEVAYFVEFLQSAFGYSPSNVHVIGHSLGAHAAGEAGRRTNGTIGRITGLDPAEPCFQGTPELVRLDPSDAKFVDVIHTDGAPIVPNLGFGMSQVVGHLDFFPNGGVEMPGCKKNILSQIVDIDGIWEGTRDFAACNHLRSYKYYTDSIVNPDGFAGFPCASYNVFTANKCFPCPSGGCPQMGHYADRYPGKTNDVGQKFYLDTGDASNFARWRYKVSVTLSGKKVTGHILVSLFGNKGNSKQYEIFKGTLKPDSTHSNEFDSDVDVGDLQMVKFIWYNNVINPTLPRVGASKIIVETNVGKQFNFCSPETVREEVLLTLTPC
Briefly: Cleavage of NAG by pancreatic lipase. It is filed as biochemical. The note with it: for Increase in the absorption at 481 nm: Pancreatic lipase, 60 min, NAG 0.05 mg/ml.

As to `O=C(CCCCCCCCCCCNc1ccc([N+](=O)[O-])c2nonc12)OCC(O)CO` (racemic) [Compound 3], in experiment [1], the IC50 was greater than 100 µM.
Take `O=C(CCCCCCCCCCCNc1ccc([N+](=O)[O-])c2nonc12)OCC(O)CO` (stereo not drawn) [Compound (3)]: the “Increase in the absorption at 481 nm” value was 9 ± 2 arb. units in experiment [2] (enzyme 10 arb. units); 14 ± 4 arb. units in experiment [2] (enzyme 20 arb. units); 39 ± 7 arb. units in experiment [2] (enzyme 50 arb. units); 64 ± 10 arb. units in experiment [2] (enzyme 75 arb. units); 92 ± 14 arb. units in experiment [2] (enzyme 100 arb. units); 140 ± 18 arb. units in experiment [2] (enzyme 150 arb. units). Moreover, the “Increase in the absorption at 481 nm” value in experiment [2] (enzyme 200 arb. units) was 188 ± 21 arb. units; in experiment [2] (enzyme 250 arb. units) it was 234 ± 30 arb. units; in experiment [2] (enzyme 300 arb. units), 265 ± 34 arb. units; in experiment [2] (enzyme 400 arb. units), 286 ± 32 arb. units. Further, in experiment [2] (pancreatic lipase, conditions optimized for HSL), the “Activity relative to HSL” value amounted to 1%.
